Laboratory results published in patent US9469650B2, “Melampomagnolide B derivatives” (BOARD OF TRUSTEES OF THE UNIVERSITY OF ARKANSAS, priority 2013, dated 2016).

Tests used:
SN12C = assay: panel of 60 human tumor cell lines, growth inhibition (Renal Cancer)
MDA-MB-231/ATCC = assay: panel of 60 human tumor cell lines, growth inhibition (Breast Cancer); details: MDA-MB-231/ATCC
OVCAR-5 = assay: panel of 60 human tumor cell lines, growth inhibition (Ovarian Cancer); details: OVCAR-5
NCI/ADR-RES = assay: as above
PC-3 = assay: panel of 60 human tumor cell lines, growth inhibition (Prostate Cancer); details: PC-3
DU-145 = assay: as above; details: DU-145
HOP-62 = assay: panel of 60 human tumor cell lines, growth inhibition (Non-Small Cell Lung Cancer); details: HOP-62
NCI-H322M = assay: as above
NCI-H460 = assay: as above; details: NCI-H460

C=C1C(=O)O[C@H]2[C@H]1CC/C(COC(=O)N1CCC(F)(F)CC1)=C\CC[C@@]1(C)O[C@@H]21 [JVM 2-66]
GI50 (SN12C): 2.72 µM | TGI (SN12C): 1.06E−5 | Percent Growth (SN12C; Log10 Concentration −4.0): −89% | Percent Growth (SN12C; Log10 Concentration −5.0): 3% | Percent Growth (SN12C; Log10 Concentration −6.0): 86% | Percent Growth (SN12C; Log10 Concentration −7.0): 94% | Percent Growth (SN12C; Log10 Concentration −8.0): 98% | GI50 (MDA-MB-231/ATCC): 2.01 µM | TGI (MDA-MB-231/ATCC): 6.59E−6 | Percent Growth (MDA-MB-231/ATCC; Log10 Concentration −4.0): −84% | Percent Growth (MDA-MB-231/ATCC; Log10 Concentration −5.0): −18% | Percent Growth (MDA-MB-231/ATCC; Log10 Concentration −6.0): 79% | Percent Growth (MDA-MB-231/ATCC; Log10 Concentration −7.0): 92% | Percent Growth (MDA-MB-231/ATCC; Log10 Concentration −8.0): 101% | GI50 (OVCAR-5): 4.25 µM | TGI (OVCAR-5): 1.60E−5 | Percent Growth (OVCAR-5; Log10 Concentration −4.0): −83% | Percent Growth (OVCAR-5; Log10 Concentration −5.0): 21% | Percent Growth (OVCAR-5; Log10 Concentration −6.0): 99% | Percent Growth (OVCAR-5; Log10 Concentration −7.0): 90% | Percent Growth (OVCAR-5; Log10 Concentration −8.0): 96% | GI50 (NCI/ADR-RES): 5.22 µM | TGI (NCI/ADR-RES): 2.08E−5 | Percent Growth (NCI/ADR-RES; Log10 Concentration −4.0): −65% | Percent Growth (NCI/ADR-RES; Log10 Concentration −5.0): 30% | Percent Growth (NCI/ADR-RES; Log10 Concentration −6.0): 99% | Percent Growth (NCI/ADR-RES; Log10 Concentration −7.0): 99% | Percent Growth (NCI/ADR-RES; Log10 Concentration −8.0): 100% | GI50 (PC-3): 10.8 µM | TGI (PC-3): 2.41E−5 | Percent Growth (PC-3; Log10 Concentration −4.0): −89% | Percent Growth (PC-3; Log10 Concentration −5.0): 55% | Percent Growth (PC-3; Log10 Concentration −6.0): 97% | Percent Growth (PC-3; Log10 Concentration −7.0): 99% | Percent Growth (PC-3; Log10 Concentration −8.0): 101% | GI50 (DU-145): 2.44 µM | TGI (DU-145): 8.35E−6 | Percent Growth (DU-145; Log10 Concentration −4.0): −100% | Percent Growth (DU-145; Log10 Concentration −5.0): −7% | Percent Growth (DU-145; Log10 Concentration −6.0): 86% | Percent Growth (DU-145; Log10 Concentration −7.0): 100% | Percent Growth (DU-145; Log10 Concentration −8.0): 102% | GI50 (HOP-62): 13.6 µM | TGI (HOP-62): 2.81E−5 | Percent Growth (HOP-62; Log10 Concentration −4.0): −87% | Percent Growth (HOP-62; Log10 Concentration −5.0): 71% | Percent Growth (HOP-62; Log10 Concentration −6.0): 93% | Percent Growth (HOP-62; Log10 Concentration −7.0): 92% | Percent Growth (HOP-62; Log10 Concentration −8.0): 101% | GI50 (NCI-H322M): 13 µM | TGI (NCI-H322M): 2.66E−5 | Percent Growth (NCI-H322M; Log10 Concentration −4.0): −92% | Percent Growth (NCI-H322M; Log10 Concentration −5.0): 68% | Percent Growth (NCI-H322M; Log10 Concentration −6.0): 102% | Percent Growth (NCI-H322M; Log10 Concentration −7.0): 99% | Percent Growth (NCI-H322M; Log10 Concentration −8.0): 96% | GI50 (NCI-H460): 13.3 µM | TGI (NCI-H460): 3.10E−5 | Percent Growth (NCI-H460; Log10 Concentration −4.0): −69% | Percent Growth (NCI-H460; Log10 Concentration −5.0): 67% | Percent Growth (NCI-H460; Log10 Concentration −6.0): 99% | Percent Growth (NCI-H460; Log10 Concentration −7.0): 101% | Percent Growth (NCI-H460; Log10 Concentration −8.0): 100%
